Measurements as given in patent US7691864B2, “Anti-hypertensive composition and methods of treatment” (University of Florida, priority 1994, dated 2010).

Tested on: Male Sprague Dawley rats
Assay: Blood pressure and heart rate in carotid-catheterized rats after I.P. dosing
Format: in vivo, rat
Procedure: Male Sprague Dawley rats averaging 400 g were anesthetized with sodium pentobarbital, 50 mg/kg I.P. The animals' neck and shoulder areas were shaved and prepped for surgery. The carotid artery was isolated and clamped using an arterial hemostat. A nick was made in the artery and a segment of PE-50 intramedic tubing was inserted, directed towards the heart and tied into place. The tubing was then flushed with heparin (100 μ/ml) and skin tunneled to the shoulder area. A stylet was inserted into the tip of the catheter to prevent blood leakage. The external incisions were closed with 11 mm staples.
The animals were fasted and allowed to recover overnight. The following morning, the stylet was removed and the tubing flushed with the heparin solution. The rats were placed into individual cages and hooked up to a transducer/oscillograph. The animals were allowed to stabilize in the cages for one-half hour before any recordings began. The oscillograph was then turned on and baseline recordings of the heart rate and blood pressure were made. The rats were given diethylhomospermine in sterile normal saline at a dose of 121.9 or 10 mg/kg I.P. The animals' heart rate and blood pressure were evaluated at t=0, 0.5 (or 1), 3, 5, 10, 15 and 20 minutes post-drug.

[1] = 10 mg/kg I.P., 10 min post-drug
[2] = 10 mg/kg I.P., 15 min post-drug
[3] = 10 mg/kg I.P., 20 min post-drug
[4] = 10 mg/kg I.P., time 0 min (baseline)
[5] = 121.9 mg/kg I.P., 0.5 min post-drug
[6] = 121.9 mg/kg I.P., 3 min post-drug
[7] = 121.9 mg/kg I.P., 5 min post-drug
[8] = 121.9 mg/kg I.P., 10 min post-drug
[9] = 121.9 mg/kg I.P., 15 min post-drug
[10] = 121.9 mg/kg I.P., 20 min post-drug
[11] = 121.9 mg/kg I.P., time 0 min (baseline)

## CCNCCCCNCCCCNCCCCNCC [diethylhomospermine]
10 mg/kg I.P., 1 min post-drug
  Blood Pressure: 105/95
  Heart Rate: 426 b.p.m.
10 mg/kg I.P., 3 min post-drug
  Blood Pressure: 110/99
  Heart Rate: 426 b.p.m.
10 mg/kg I.P., 5 min post-drug
  Blood Pressure: 110/98
  Heart Rate: 426 b.p.m.
[1]
  Blood Pressure: 105/97
  Heart Rate: 402 b.p.m.
[2]
  Blood Pressure: 105/97
  Heart Rate: 390 b.p.m.
[3]
  Blood Pressure: 107/100
  Heart Rate: 402 b.p.m.
[4]
  Blood Pressure: 135/120
  Heart Rate: 414 b.p.m.
[5]
  Blood Pressure: 75/68
  Heart Rate: 468 b.p.m.
[6]
  Blood Pressure: 52/44
  Heart Rate: 402 b.p.m.
[7]
  Blood Pressure: 51/42
  Heart Rate: 354 b.p.m.
[8]
  Blood Pressure: 42/40
  Heart Rate: 336 b.p.m.
[9]
  Blood Pressure: 39/34
  Heart Rate: 354 b.p.m.
[10]
  Blood Pressure: 30/28
  Heart Rate: 348 b.p.m.
[11]
  Blood Pressure: 130/120
  Heart Rate: 432 b.p.m.
